≈ marks a conversion by molar mass, not a printed value. Like-named read-outs stand apart in the source and are kept apart here.
Tests used:
Type in all cases: cell-based
[1] = system: Acinetobacter baumannii; test: In vitro antibacterial activity of Example 5 (MIC)
[2] = system: Enterococcus faecalis; test: In vitro antibacterial activity of Example 5 (MIC)
[3] = system: Enterococcus faecium; test: In vitro antibacterial activity of Example 5 (MIC)
[4] = system: Escherichia coli; test: In vitro antibacterial activity of Example 5 (MIC)
[5] = system: Serratia marcescens; test: In vitro antibacterial activity of Example 5 (MIC)
[6] = system: Streptococcus pneumoniae; test: In vitro antibacterial activity of Example 5 (MIC)
[7] = system: Clostridium difficile; test: In vitro antibacterial activity of Example 5 against anaerobes (MIC, agar dilution); conditions: Clostridioides difficile
[8] = system: Finegoldia magna; test: as above; conditions: ATCC53516; Finegoldia magna (ATCC 53516)
[9] = system: Bacillus subtilis; test: In vitro antibacterial activity of Example 5 (MIC); conditions: 11 strains of Bacillus subtilis

`C[C@@H]1CN2c3c(cc4c(N5C(=O)OC[C@@H]5C)noc4c3F)CC3(C(=O)NC(=O)NC3=O)[C@H]2[C@H](C)O1` [Example 5, (2R,4S,4aS)-11-Fluoro-2,4-dimethyl-8-[(4S)-4-methyl-2-oxo-1,3-oxazolidin-3-yl]-1,2,4,4a-tetrahydro-2′H,6H-spiro[1,4-oxazino[4,3-a][1,2]oxazolo[4,5-g]quinoline-5,5′-pyrimidine]-2′,4′,6′(1′H,3′H)-trione] showed an MIC [1] of 4 µg/mL (≈ 8.21 µM), an MIC ([1]; Acinetobacter baumannii (in vivo strain)) of 4 µg/mL (≈ 8.21 µM) and an MIC ([1]; Acinetobacter baumannii (multi-drug resistant)) of 16 µg/mL (≈ 32.8 µM). For the same compound, the MIC range ([2]; E. faecalis, n=51) was 0.125 to 2 µg/mL, the MIC ([2]; Enterococcus faecalis) was 2 µg/mL (≈ 4.1 µM) and the MIC ([2]; Enterococcus faecalis, ATCC29212, Enterococcus faecalis (ATCC 29212 CLSI QC Strain)) was 1 µg/mL (≈ 2.05 µM). The MIC ([2]; Enterococcus faecalis, Enterococcus faecalis (Vancomycin-R, fluoroquinolone-R)) was 0.5 µg/mL (≈ 1.03 µM), the MIC90 ([2]; Enterococcus faecalis, E. faecalis, n=51) was 2 µg/mL (≈ 4.1 µM) and the MIC [3] was 16 µg/mL (≈ 32.8 µM). The MIC90 ([3]; E. faecium) was 16 µg/mL (≈ 32.8 µM), the MIC ([3]; Enterococcus faecium (Vancomycin-R, fluoroquinolone-R)) was 8 µg/mL (≈ 16.4 µM) and the MIC ([4]; ATCC25922, Escherichia coli (ATCC 25922 CLSI QC Strain)) was 2 µg/mL (≈ 4.1 µM). For the same compound, the MIC ([4]; ATCC25922, Escherichia coli (TolC- of ATCC 25922)) was < 0.06 µg/mL, the MIC ([4]; ATCC25922, Escherichia coli + 2%Human albumin (ATCC 25922)) was < 0.06 µg/mL and the MIC ([4]; ATCC35218, Escherichia coli (ATCC 35218 CLSI QC Strain)) was 4 µg/mL (≈ 8.21 µM). For the same compound, the MIC ([4]; Escherichia coli (K12(W3110))) was 2 µg/mL (≈ 4.1 µM), the MIC [5] was > 64 µg/mL and the MIC ([6]; Streptococcus pneumonia (Penicillin, -erythromycin- and fluoroquinolone-resistant)) was 0.25 µg/mL (≈ 0.513 µM). It also gave an MIC ([6]; Streptococcus pneumoniae, ATCC49619, Streptococcus pneumonia (ATCC 49619, CLSI QC Strain), read-out: MIC) of 0.25 µg/mL (≈ 0.513 µM), an MIC90 ([6]; Streptococcus pneumoniae, 100 strains of S. pneumoniae) of 0.25 µg/mL (≈ 0.513 µM) and an MIC50 ([6]; Streptococcus pneumoniae, 100 strains of S. pneumoniae, read-out: MIC50 (MICH [sic])) of 0.125 µg/mL (≈ 0.256 µM). It also gave an MIC ([6]; Streptococcus pneumoniae, Streptococcus pneumonia (In vivo Strain), read-out: MIC) of 0.25 µg/mL (≈ 0.513 µM), an MIC ([7]; ATCC70057, Clostridium difficile (ATCC 70057, CLSI QC Strain)) of 0.125 µg/mL (≈ 0.256 µM) and an MIC ([7]; Clostridium difficile) of 0.125 µg/mL (≈ 0.256 µM). The MIC [8] was < 0.03 µg/mL and the MIC90 [9] was 0.5 µg/mL (≈ 1.03 µM).

Source: patent US8889671B2, “Compounds and methods for treating bacterial infections” (AstraZeneca AB, priority 2013, dated 2014)
